Assay results as given in publication PMC9501768, “A New Class of Tunable Acid-Sensitive Linkers for Native Drug Release Based on the Trityl Protecting Group” (Bioconjugate Chemistry, 2022).
Read-outs that look alike come from different tables or passages of the source.

Key:
[1] = Release of native API from API-linker construct in buffer (UHPLC, first-order fit); type: physicochemical
Method: Release of DMXAA-amine 1 from the linker construct 12 (method described in S3.1) was measured at 37 °C for 24 h. At set time points, the concentration of the native compound 1 in a buffer of different pH values was measured by ultrahigh performance liquid chromatography (UHPLC) as shown in Figure 3.
The half-life values (t1/2) were determined from the slope of the first-order kinetic curves fitted through the release curve and are shown in Table 2. Details are provided in Section S3 of the Supporting Information. […]
S3: In vitro release protocol and stability control
S3.1 Release of API from API-linker construct
API-linker constructs 12-16, 17 and 18 were dissolved in DMSO at 1 mg/mL. This was then further diluted 10x in 20 mM sodium phosphate buffer 130 mM NaCl pH 7.4, 100 mM sodium citrate buffer 50 mM NaCl pH 6.5, 20 mM ammonium acetate 130 mM NaCl pH 5.0 or if needed 100 mM sodium phosphate buffer 50 mM NaCl pH 3.0. These dilutions were incubated at 37°C in the sample tray and at different timepoints, the concentration of free API 1, 2, or 3 was measured on a H-class UPLC system (Waters) (Figure S7 and S8)
Figure S 7: Chromatogram of 15 at 37°C, pH 7.4 t=0 hours
(1 picture or pasted object on this page, not shown here)
Figure S 8: Chromatogram of 15 at 37°C, pH 7.4, t= 12 hours […]
injection volume, 30 °C column temperature. Run with the following gradient: […]
Time (min) Flow rate %A %B
With A: 25 mM Ammonium acetate buffer pH 5.0 and B: acetonitrile.
2: Acquity HSS T3 1.7 μm, 50 x 2.1 mm column for 18 at 275 nm, 5.0 µL injection volume, 30 °C column temperature. Run with the following gradient: […]
Time (min) Flow rate % A % B
With A: phosphate buffer pH 2.5 and B: methanol.
3: Acquity BEH C18 1.7 μm, 50 x 2.1 mm for 18 at 233 nm, 2.0 µL injection volume, 30 °C column […]
With A: 10 mM ammonium bicarbonate pH 9.6 and B: acetonitrile.
Measured concentrations were plotted using GraphPad Prism 9 and fitted based on first order kinetics.
All fitted lines complied with an R2>0.95. This gave the half-life and plateau when this was not reached within the measured timeframe. […]
Size of all particles were confirmed to be between 55 and 70 nm.

[2] = parameters: method as in PMID 14644; conditions: doxorubicin amine nitrogen bound to trityl; cited from earlier work
[3] = Release of native API from API-linker construct in buffer (UHPLC, first-order fit); type: physicochemical; conditions: pH 5.0, 37 °C
[4] = ammonium acetate buffer, pH 5, API-trityl linker construct in buffer, pH 5.0, 37 °C, read-out: t1/2 pH 5.0 (converted)
[5] = sodium citrate buffer, pH 6.5, API-trityl linker construct in buffer, pH 6.5, 37 °C, read-out: t1/2 pH 6.5 (converted)
[6] = sodium phosphate buffer, pH 7.4, API-trityl linker construct in buffer, pH 7.4, 37 °C, values for 17 are estimations (doxorubicin precipitation), read-out: t1/2 pH 7.4 (converted)

Compound	half-life at 0.1 mg/mL [1, 4]	half-life at 0.1 mg/mL [1, 5]	half-life at 0.1 mg/mL [1, 6]	further results
COc1cccc2c1C(=O)c1c(O)c3c(c(O)c1C2=O)C[C@@](O)(C(=O)CO)C[C@@H]3O[C@H]1C[C@H](N)[C@H](O)[C@H](C)O1 [compound 2, doxorubicin, reference compound]	< 1 h	–	–	–
C=C(C)C(=O)NCCCNC(=O)c1ccc(C(Nc2ccc(CC(=O)[O-])c3oc4c(C)c(C)ccc4c(=O)c23)(c2ccc(OC)cc2OC)c2ccc(OC)cc2OC)cc1.[Li+] [compound 14]	< 1 h	< 1 h	< 1 h	–
C=C(C)C(=O)NCCCNC(=O)c1cccc(C(N[C@H]2C[C@H](O[C@H]3C[C@](O)(C(=O)CO)Cc4c(O)c5c(c(O)c43)C(=O)c3c(OC)cccc3C5=O)O[C@@H](C)[C@H]2O)(c2ccc(OC)cc2)c2ccc(OC)cc2)c1 [compound 17]	–	–	–	half-life at 0.1 mg/mL ([1]; API-trityl linker construct in buffer, pH 5.0, 37 °C, read-out: t1/2 pH 5.0 (converted)): < 1 h; half-life at 0.1 mg/mL ([1]; API-trityl linker construct in buffer, pH 7.4, 37 °C, values for 17 are estimations (doxorubicin precipitation), read-out: t1/2 pH 7.4 (converted)): ~6 h; pKa of the most basic nitrogen [2]: 8.4
Nc1ccn([C@@H]2O[C@H](CO)[C@@H](O)C2(F)F)c(=O)n1 [compound 3, gemcitabine]	–	–	–	release at pH 5.0 within 72 h [3]: no detectable release
C=C(C)C(=O)NCCCNC(=O)c1cccc(C(Nc2ccn([C@@H]3O[C@H](CO)[C@@H](O)C3(F)F)c(=O)n2)(c2ccc(OC)cc2)c2ccc(OC)cc2)c1 [compound 18]	> 72 h	–	> 72 h	t1/2 pH 3.0 (h) ([1]; API-trityl linker construct in buffer, pH 3.0, 37 °C, listed as gem–trityl 18): 23.2 ± 0.5 h; half-life at 0.1 mg/mL ([1]; sodium phosphate buffer, pH 3, API-trityl linker construct in buffer, pH 3.0, 37 °C, read-out: t1/2 pH 3.0 (converted)): 23.3 h
C=C(C)C(=O)NCCCNC(=O)c1cccc(C(Nc2ccc(CC(=O)[O-])c3oc4c(C)c(C)ccc4c(=O)c23)(c2ccc(OC)cc2)c2ccc(OC)cc2)c1.[Li+] [compound 12]	1.8 ± 0.1 h	83 ± 27 h	–	release of native DMXAA-amine 1 at pH 5 ([1]; construct in buffer, pH 5, 37 °C, within 12 h): 100%; release of native DMXAA-amine 1 at pH 6.5 ([1]; construct in buffer, pH 6.5, 37 °C, over 24 h): ~20%; release of native DMXAA-amine 1 at pH 7.4 ([1]; construct in buffer, pH 7.4, 37 °C, over 24 h): Hardly any release

Continued, in another order:

half-life at 0.1 mg/mL [1, 4]	half-life at 0.1 mg/mL [1, 5]	half-life at 0.1 mg/mL [1, 6]	Compound	further results
< 1 h	1.2 ± 0.1 h	4.2 ± 0.2 h	C=C(C)C(=O)NCCCNC(=O)c1ccc(C(Nc2ccc(CC(=O)[O-])c3oc4c(C)c(C)ccc4c(=O)c23)(c2ccc(OC)c(OC)c2)c2ccc(OC)c(OC)c2)cc1.[Li+] [compound 13]	–
< 1 h	1.9 ± 0.2 h	–	C=C(C)C(=O)NCCCNC(=O)c1ccc(C(Nc2ccc(CC(=O)[O-])c3oc4c(C)c(C)ccc4c(=O)c23)(c2ccc(OC)c(C)c2)c2ccc(OC)c(C)c2)cc1.[Li+] [compound 15]	–
< 1 h	< 1 h	2.3 ± 0.1 h	C=C(C)C(=O)NCCCNC(=O)c1cccc(C(Nc2ccc(CC(=O)[O-])c3oc4c(C)c(C)ccc4c(=O)c23)(c2ccc(OC)c(OC)c2)c2ccc(OC)c(OC)c2)c1.[Li+] [compound 16]	–
